From the supplement of paper PMC13380429

Key:
Conditions in all cases: 72 h
U2OS [1] = assay: cell viability relative to DMSO; higher = less toxic
Vero E6 [2] = assay: as above
Calu-3 [3] = assay: as above
Caco-2 [4] = assay: as above
HepG2 [5] = assay: as above
U2OS [6] = assay: drug sensitivity score (DSS) for viability; higher = more toxic; extreme values may be limits of the assay
Vero E6 [7] = assay: as above
Calu-3 [8] = assay: as above
Caco-2 [9] = assay: as above
HepG2 [10] = assay: as above
U2OS [11] = assay: relative viability EC50 (midpoint between 100% and the lowest measured viability); higher = less toxic
Vero E6 [12] = assay: as above
Calu-3 [13] = assay: as above
Caco-2 [14] = assay: as above
HepG2 [15] = assay: as above

| Structure (SMILES) | cell viability (U2OS [1]; 1 nM) | cell viability (U2OS [1]; 10 nM) | cell viability (U2OS [1]; 100 nM) | cell viability (U2OS [1]; 1000 nM) | cell viability (U2OS [1]; 10000 nM) | cell viability (Vero E6 [2]; 1 nM) | cell viability (Vero E6 [2]; 10 nM) | cell viability (Vero E6 [2]; 100 nM) | cell viability (Vero E6 [2]; 1000 nM) | cell viability (Vero E6 [2]; 10000 nM) | cell viability (Calu-3 [3]; 1 nM) | cell viability (Calu-3 [3]; 10 nM) | cell viability (Calu-3 [3]; 100 nM) | cell viability (Calu-3 [3]; 1000 nM) | cell viability (Calu-3 [3]; 10000 nM) | cell viability (Caco-2 [4]; 1 nM) | cell viability (Caco-2 [4]; 10 nM) | cell viability (Caco-2 [4]; 100 nM) | cell viability (Caco-2 [4]; 1000 nM) | cell viability (Caco-2 [4]; 10000 nM) | cell viability (HepG2 [5]; 1 nM) | cell viability (HepG2 [5]; 10 nM) | cell viability (HepG2 [5]; 100 nM) | cell viability (HepG2 [5]; 1000 nM) | cell viability (HepG2 [5]; 10000 nM) | drug sensitivity score (U2OS [6]) | drug sensitivity score (Vero E6 [7]) | drug sensitivity score (Calu-3 [8]) | drug sensitivity score (Caco-2 [9]) | drug sensitivity score (HepG2 [10]) | relative viability EC50 (U2OS [11]) | relative viability EC50 (Vero E6 [12]) | relative viability EC50 (Calu-3 [13]) | relative viability EC50 (Caco-2 [14]) | relative viability EC50 (HepG2 [15]) |
| --- | --- | --- | --- | --- | --- | --- | --- | --- | --- | --- | --- | --- | --- | --- | --- | --- | --- | --- | --- | --- | --- | --- | --- | --- | --- | --- | --- | --- | --- | --- | --- | --- | --- | --- | --- |
| Nc1ccc(S(N)(=O)=O)cc1 [sulfanilamide] | 98.8% | 97% | 106% | 100% | 103% | 99.8% | 94.2% | 83.1% | 105% | 117% | 95% | 97.2% | 106% | 90.7% | 102% | 85.8% | 59.8% | 84.2% | 81.1% | 113% | 96.8% | 104% | 95.1% | 109% | 103% | 0 | 0 | 0 | 0 | 0 | > 10 µM | > 10 µM | > 10 µM | > 10 µM | > 10 µM |
| COc1ccc(-c2cc(=O)c3c(OC)c(OC)c(OC)c(OC)c3o2)cc1 [tangeritin] | 98.5% | 94.3% | 98.9% | 97.4% | 89.8% | 91.8% | 98.7% | 92.4% | 98% | 97% | 106% | 99.6% | 103% | 100% | 92.3% | 95.1% | 89.6% | 99% | 103% | 91.7% | 94.2% | 101% | 95.2% | 107% | 105% | 0 | 0 | 0 | 0 | 0 | > 10 µM | > 10 µM | > 10 µM | > 10 µM | > 10 µM |
| CCN(CC)C(=O)N[C@H]1C[C@@H]2c3cccc4[nH]cc(c34)C[C@H]2N(C)C1 [terguride] | 96.4% | 95.3% | 94.5% | 99.1% | 94.7% | 105% | 106% | 104% | 99.8% | 97% | 106% | 97.4% | 95.2% | 105% | 115% | 88.6% | 93.3% | 108% | 97.2% | 99.5% | 104% | 105% | 95.9% | 92.9% | 102% | 0 | 0 | 0 | 0 | 0 | > 10 µM | > 10 µM | > 10 µM | > 10 µM | > 10 µM |
| Cc1ccsc1C(=CCCN1CCC[C@@H](C(=O)O)C1)c1sccc1C [tiagabine] | 101% | 94.2% | 101% | 98% | 94.2% | 98.2% | 100% | 92.4% | 104% | 106% | 117% | 103% | 99.8% | 98.1% | 100% | 93.5% | 97.9% | 102% | 92.3% | 106% | 96% | 103% | 97.3% | 103% | 98.6% | 0 | 0 | 0 | 0 | 0 | > 10 µM | > 10 µM | > 10 µM | > 10 µM | > 10 µM |
| CCS(=O)(=O)CCn1c([N+](=O)[O-])cnc1C [tinidazole] | 96.3% | 94.8% | 97.1% | 92% | 98.3% | 100% | 102% | 91.7% | 97.6% | 106% | 95.2% | 96.6% | 98.4% | 98.2% | 99.9% | 104% | 77.8% | 99% | 108% | 93.1% | 94.1% | 109% | 85.5% | 118% | 86.8% | 0 | 0 | 0 | 0 | 0 | > 10 µM | > 10 µM | > 10 µM | > 10 µM | > 10 µM |
| COc1ccc(N2CCOCC2)c2sc(NC(=O)N3CCC(C)(O)CC3)nc12 [tozadenant] | 103% | 95.7% | 102% | 98.9% | 103% | 94.5% | 106% | 90.6% | 94.3% | 101% | 87.7% | 94.1% | 87.3% | 101% | 97.4% | 90.8% | 95.5% | 110% | 96.1% | 98% | 85.8% | 99.4% | 109% | 99.7% | 98.2% | 0 | 0 | 0 | 0 | 0 | > 10 µM | > 10 µM | > 10 µM | > 10 µM | > 10 µM |
| O=C(O)/C=C/CO [trans-4-hydroxycrotonic-acid] | 98.3% | 99.7% | 102% | 98.2% | 98.9% | 97% | 102% | 94.8% | 101% | 106% | 109% | 95.3% | 102% | 97.1% | 100% | 96.2% | 93.5% | 97.6% | 103% | 99.8% | 94.7% | 92% | 98% | 113% | 102% | 0 | 0 | 0 | 0 | 0 | > 10 µM | > 10 µM | > 10 µM | > 10 µM | > 10 µM |
